Molecular target: VicR (Streptococcus mutans, UniProt I6L8Z5)
Assay: bio-layer interferometry, biotinylated 2B5 on streptavidin sensors; pulldown of recombinant VicR and VicR-N
Format: binding
Parameters: gene covR; recombinant VicR; VicR-N (1 to 125 amino acid residues) also captured, VicR-C (126 to 235) not captured

Sequence of VicR (I6L8Z5 entry or part of it): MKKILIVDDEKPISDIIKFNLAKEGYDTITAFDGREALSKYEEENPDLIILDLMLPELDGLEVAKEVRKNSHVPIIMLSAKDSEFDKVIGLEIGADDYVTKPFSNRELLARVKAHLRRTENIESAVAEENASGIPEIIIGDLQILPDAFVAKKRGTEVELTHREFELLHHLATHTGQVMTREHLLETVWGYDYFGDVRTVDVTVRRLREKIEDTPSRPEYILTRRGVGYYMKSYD

`CCCCCCCCCCCCCCCCN(CCCCCCc1cn(CCNC(=O)CCCC[C@@H]2SC[C@@H]3NC(=O)N[C@@H]32)nn1)C(=O)CCCc1c[nH]c(N)n1` [Bio2B5, biotinylated 2B5] showed a Kd of 38 ± 6.3 µM.

From publication PMC10294662, “Small Molecule Attenuates Bacterial Virulence by Targeting Conserved Response Regulator” (mBio, 2023)
